Reference: US11033539B2, “Compounds of formulas (VII), (VIII), (IX), (XI), (XII), (XIII), and (XIV) as muscarinic receptor 4(M4) antagonists for treating neurological diseases” (Neurocrine Biosciences, Inc., priority 2015, dated 2021)

Assays:
[1] = target: human M3 receptor (Homo sapiens (Human), UniProt P20309); test: Radioligand (tritiated N-methylscopolamine) binding assay, M3; settings: CHO cell membranes expressing human M3; 1.5 nM tritiated N-methylscopolamine; 90 min, 37° C.; read-out: Ki against M3 receptor (Table 21, M3)
Sequence of human M3 receptor (P20309 whole entry): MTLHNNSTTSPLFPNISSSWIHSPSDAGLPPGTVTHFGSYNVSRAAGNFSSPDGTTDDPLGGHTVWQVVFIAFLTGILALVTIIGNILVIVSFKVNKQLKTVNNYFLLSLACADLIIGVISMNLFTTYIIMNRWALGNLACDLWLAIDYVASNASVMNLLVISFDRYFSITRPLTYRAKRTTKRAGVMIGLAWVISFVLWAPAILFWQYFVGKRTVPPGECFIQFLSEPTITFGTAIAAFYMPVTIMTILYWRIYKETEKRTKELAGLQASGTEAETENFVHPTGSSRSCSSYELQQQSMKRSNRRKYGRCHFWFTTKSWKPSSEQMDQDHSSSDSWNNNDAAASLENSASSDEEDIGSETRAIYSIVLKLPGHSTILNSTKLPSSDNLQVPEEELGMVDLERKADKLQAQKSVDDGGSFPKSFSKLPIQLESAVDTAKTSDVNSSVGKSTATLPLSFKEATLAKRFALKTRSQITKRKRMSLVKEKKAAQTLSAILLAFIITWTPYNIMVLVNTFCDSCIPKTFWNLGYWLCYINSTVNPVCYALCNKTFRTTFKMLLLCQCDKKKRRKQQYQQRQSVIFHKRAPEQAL
Procedure, shortened: (§1)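 Compounds were tested at twelve concentrations ranging from 10 μM to […] against 1.5 nM radioligand on CHO cell membranes expressing each subtype. Incubation lasts 90 min at 37 °C in HEPES-buffered saline with Mg2+ and EDTA, pH 7.4, and filtration then separates bound radioligand.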

[2] = target: human M1 receptor (Homo sapiens (Human), UniProt P11229); test: Radioligand (tritiated N-methylscopolamine) binding assay, M1; settings: CHO cell membranes expressing human M1; 1.5 nM tritiated N-methylscopolamine; 90 min, 37° C.; read-out: Ki against M1 receptor (Table 21, M1)
Sequence of human M1 receptor (P11229 whole entry): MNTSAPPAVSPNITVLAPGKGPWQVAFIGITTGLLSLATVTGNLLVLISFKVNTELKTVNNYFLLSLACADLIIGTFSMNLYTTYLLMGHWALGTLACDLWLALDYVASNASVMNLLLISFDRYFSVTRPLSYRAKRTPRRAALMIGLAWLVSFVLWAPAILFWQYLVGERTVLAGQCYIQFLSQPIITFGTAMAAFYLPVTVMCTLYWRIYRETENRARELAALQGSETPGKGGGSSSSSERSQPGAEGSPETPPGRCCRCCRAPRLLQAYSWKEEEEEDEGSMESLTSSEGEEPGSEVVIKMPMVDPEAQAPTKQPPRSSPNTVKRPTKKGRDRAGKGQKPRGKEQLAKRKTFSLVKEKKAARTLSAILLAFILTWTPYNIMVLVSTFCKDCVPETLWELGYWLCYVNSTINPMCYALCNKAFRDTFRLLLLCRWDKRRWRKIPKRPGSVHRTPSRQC
Procedure, shortened: as §1

[3] = target: human M2 receptor (Homo sapiens (Human), UniProt P08172); test: Radioligand (tritiated N-methylscopolamine) binding assay, M2; settings: CHO cell membranes expressing human M2; 1.5 nM tritiated N-methylscopolamine; 90 min, 37° C.; read-out: Ki against M2 receptor (Table 21, M2)
Sequence of human M2 receptor (P08172 whole entry): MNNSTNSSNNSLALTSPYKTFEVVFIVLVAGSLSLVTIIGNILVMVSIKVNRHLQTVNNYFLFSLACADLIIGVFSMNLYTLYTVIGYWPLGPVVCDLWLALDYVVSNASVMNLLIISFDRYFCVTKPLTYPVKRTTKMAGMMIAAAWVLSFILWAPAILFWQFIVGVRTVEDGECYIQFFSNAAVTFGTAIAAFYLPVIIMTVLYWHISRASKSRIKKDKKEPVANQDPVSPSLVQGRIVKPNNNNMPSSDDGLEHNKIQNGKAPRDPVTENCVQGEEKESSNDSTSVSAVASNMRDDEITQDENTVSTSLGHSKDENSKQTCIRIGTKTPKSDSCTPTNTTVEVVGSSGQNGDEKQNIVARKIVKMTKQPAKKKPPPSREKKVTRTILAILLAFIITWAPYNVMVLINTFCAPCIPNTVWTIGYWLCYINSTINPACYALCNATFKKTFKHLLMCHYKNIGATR
Procedure, shortened: as §1

[4] = target: human M5 receptor (Homo sapiens (Human), UniProt P08912); test: Radioligand (tritiated N-methylscopolamine) binding assay, M5; settings: CHO cell membranes expressing human M5; 1.5 nM tritiated N-methylscopolamine; 90 min, 37° C.; read-out: Ki against M5 receptor (Table 21, M5)
Sequence of human M5 receptor (P08912 whole entry): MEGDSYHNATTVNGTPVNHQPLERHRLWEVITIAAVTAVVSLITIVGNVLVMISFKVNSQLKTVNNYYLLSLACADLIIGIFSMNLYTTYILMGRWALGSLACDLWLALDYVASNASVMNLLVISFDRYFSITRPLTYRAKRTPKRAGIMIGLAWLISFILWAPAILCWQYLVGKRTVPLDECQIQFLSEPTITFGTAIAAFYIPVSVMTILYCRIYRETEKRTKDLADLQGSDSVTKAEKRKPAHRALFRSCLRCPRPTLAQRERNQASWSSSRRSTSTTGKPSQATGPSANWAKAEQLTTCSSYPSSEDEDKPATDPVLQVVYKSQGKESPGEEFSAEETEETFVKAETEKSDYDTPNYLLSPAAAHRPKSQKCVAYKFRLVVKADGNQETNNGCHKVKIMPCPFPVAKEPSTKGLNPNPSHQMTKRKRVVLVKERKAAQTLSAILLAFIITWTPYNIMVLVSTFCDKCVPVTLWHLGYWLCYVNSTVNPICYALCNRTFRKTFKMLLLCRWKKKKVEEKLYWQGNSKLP
Procedure, shortened: as §1

[5] = target: human M4 receptor (Homo sapiens (Human), UniProt P08173); test: Radioligand (tritiated N-methylscopolamine) binding assay, M4; settings: Ki against the M4 receptor; membranes from CHO cells expressing human M4; tritiated N-methylscopolamine 1.5 nM; read-out: Ki
Sequence of human M4 receptor (P08173 whole entry): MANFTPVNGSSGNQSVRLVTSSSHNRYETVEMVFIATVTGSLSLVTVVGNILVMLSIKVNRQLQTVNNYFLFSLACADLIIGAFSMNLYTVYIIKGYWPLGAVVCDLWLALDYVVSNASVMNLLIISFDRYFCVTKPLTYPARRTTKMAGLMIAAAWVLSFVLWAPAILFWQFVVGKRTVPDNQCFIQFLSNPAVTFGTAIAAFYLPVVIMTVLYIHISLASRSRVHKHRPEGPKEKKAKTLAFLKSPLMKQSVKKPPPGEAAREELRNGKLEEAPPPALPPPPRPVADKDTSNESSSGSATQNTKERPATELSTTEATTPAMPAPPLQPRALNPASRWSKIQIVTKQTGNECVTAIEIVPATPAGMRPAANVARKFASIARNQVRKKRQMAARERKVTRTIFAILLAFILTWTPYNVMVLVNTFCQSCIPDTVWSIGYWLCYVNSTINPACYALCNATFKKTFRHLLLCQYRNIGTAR
Procedure, shortened: as §1

Ki [1] [µM] | Ki [2] [µM] | Ki [3] [µM] | Ki [4] [µM] | Ki [5] [µM] | SMILES
> 1 | 0.1 to 1 | 0.01 to 0.1 | > 1 | < 0.01 | O=C(NCCC1CCN(Cc2ccccc2)CC1)C1CCN(c2ccc3c(c2)OC(F)(F)O3)CC1 [10-5, N-[2-(1-benzylpiperidin-4-yl)ethyl]-1-(2,2-difluoro-2H-1,3-benzodioxol-5-yl)piperidine-4-carboxamide]
> 1 | 0.1 to 1 | 0.1 to 1 | > 1 | < 0.01 | CC1CN(c2ccc(OC(F)(F)F)cc2)CCC1C(=O)NCCC1CCN(Cc2ccccc2)CC1 (stereo not drawn) [10-6, N-[2-(1-benzylpiperidin-4-yl)ethyl]-3-methyl-1-[4-(trifluoromethoxy)phenyl]piperidine-4-carboxamide]
> 1 | > 1 | 0.1 to 1 | > 1 | < 0.01 | O=C(NCCC1CCN(Cc2ccccc2)CC1)C1CCN(c2cc(F)c(F)c(F)c2)CC1 [10-7, N-[2-(1-benzylpiperidin-4-yl)ethyl]-1-(3,4,5-trifluorophenyl)piperidine-4-carboxamide]
> 1 | > 1 | 0.1 to 1 | > 1 | < 0.01 | O=C(NCCC1CCN(Cc2ccccc2)CC1)C1CCN(c2ccc(OC(F)(F)F)c(F)c2)CC1 [10-8, N-[2-(1-benzylpiperidin-4-yl)ethyl]-1-[3-fluoro-4-(trifluoromethoxy)phenyl]piperidine-4-carboxamide]
> 1 | > 1 | 0.1 to 1 | > 1 | < 0.01 | O=C(NCCC1CCN(Cc2ccccc2)CC1)C1CCN(c2ccc(C(F)(F)F)cc2)CC1 [10-9, N-[2-(1-benzylpiperidin-4-yl)ethyl]-1-[4-(trifluoromethyl)phenyl]piperidine-4-carboxamide]
> 1 | 0.1 to 1 | 0.1 to 1 | > 1 | < 0.01 | COc1cc(N2CCC(C(=O)NCCC3CCN(Cc4ccccc4)CC3)CC2)ccc1OC(F)(F)F [10-10, N-[2-(1-benzylpiperidin-4-yl)ethyl]-1-[3-methoxy-4-(trifluoromethoxy)phenyl]piperidine-4-carboxamide]
> 1 | 0.1 to 1 | 0.1 to 1 | > 1 | < 0.01 | O=C(NCCC1CCN(Cc2ccccc2)CC1)C1CCN(c2ccc(F)c(OC(F)(F)F)c2)CC1 [10-11, N-[2-(1-benzylpiperidin-4-yl)ethyl]-1-[4-fluoro-3-(trifluoromethoxy)phenyl]piperidine-4-carboxamide]

Continued, molecule first:

SMILES | Ki [1] [µM] | Ki [2] [µM] | Ki [3] [µM] | Ki [4] [µM] | Ki [5] [µM]
C[C@@H]1CN(c2ccc(F)c(C(F)F)c2)CCN1C(=O)NCCC1CCN(Cc2ccccc2)CC1 [7-9, (2R)-N-[2-(1-benzylpiperidin-4-yl)ethyl]-4-[3-(difluoromethyl)-4-fluorophenyl]-2-methylpiperazine-1-carboxamide] | > 1 | 0.1 to 1 | 0.1 to 1 | > 1 | < 0.01
C[C@@H]1CN(c2ccc(OC(F)(F)F)c(C#N)c2)CCN1C(=O)NC[C@H](O)C1CCN(Cc2ccccc2)CC1 [7-10, (2R)-N-[(2R)-2-(1-benzylpiperidin-4-yl)-2-hydroxyethyl]-4-[3-cyano-4-(trifluoromethoxy)phenyl]-2-methylpiperazine-1-carboxamide] | > 1 | > 1 | 0.1 to 1 | > 1 | < 0.01
C[C@@H]1CN(c2ccc(F)c(C#N)c2)CCN1C(=O)NCCC1(O)CCN(Cc2ccccc2)CC1 [7-11, (2R)-N-[2-(1-benzyl-4-hydroxypiperidin-4-yl)ethyl]-4-(3-cyano-4-fluorophenyl)-2-methylpiperazine-1-carboxamide] | > 1 | > 1 | > 1 | > 1 | < 0.01
C[C@@H]1CN(c2ccc(F)c(C#N)c2)CCN1C(=O)NC[C@H](O)C1CCN(Cc2ccccc2)CC1 [7-12, (2R)-N-[(2R)-2-(1-benzylpiperidin-4-yl)-2-hydroxyethyl]-4-(3-cyano-4-fluorophenyl)-2-methylpiperazine-1-carboxamide] | > 1 | > 1 | > 1 | > 1 | < 0.01
O=C(NCCC1CCN(Cc2ccccc2)CC1)N1CCC(c2ccc(C(F)(F)F)cc2)CC1 [8-1, N-[2-(1-benzylpiperidin-4-yl)ethyl]-4-[4-(trifluoromethyl)phenyl]piperidine-1-carboxamide] | 0.1 to 1 | 0.1 to 1 | 0.1 to 1 | 0.1 to 1 | < 0.01
N#Cc1cnc(N2CC3CCC(C2)N3C(=O)NCCC2CCN(Cc3ccccc3)CC2)nc1 [8-48, N-[2-(1-benzylpiperidin-4-yl)ethyl]-3-(5-cyanopyrimidin-2-yl)-3,8-diazabicyclo[3.2.1]octane-8-carboxamide] | 0.1 to 1 | 0.01 to 0.1 | < 0.01 | 0.1 to 1 | < 0.01
O=C(NCCC1CCN(Cc2ccccc2)CC1)C1CCN(c2ccc(OC(F)(F)F)cc2)CC1 [9-1, N-[2-(1-benzylpiperidin-4-yl)ethyl]-1-[4-(trifluoromethoxy)phenyl]piperidine-4-carboxamide] | > 1 | > 1 | 0.1 to 1 | > 1 | < 0.01
C[C@@H]1CN(c2cc(F)cc(C#N)c2)CCN1C(=O)NC[C@@H](O)C1CCN(Cc2ccccc2)CC1 [9-5, (2R)-N-[(2S)-2-(1-benzylpiperidin-4-yl)-2-hydroxyethyl]-4-(3-cyano-5-fluorophenyl)-2-methylpiperazine-1-carboxamide] | > 1 | > 1 | > 1 | > 1 | < 0.01
O=C(NCCC1CCN(Cc2ccccc2)CC1)c1ccc(-c2ccc(OC(F)(F)F)cc2)cc1F [9-6, N-[2-(1-benzylpiperidin-4-yl)ethyl]-2-fluoro-4-[4-(trifluoromethoxy)phenyl]benzamide] | 0.1 to 1 | 0.1 to 1 | 0.01 to 0.1 | 0.1 to 1 | < 0.01
O=C(NCCC1CCN(Cc2ccccc2)CC1)c1ccc(-c2ccc(OC(F)(F)F)cc2)cc1 [9-7, N-[2-(1-benzylpiperidin-4-yl)ethyl]-4-[4-(trifluoromethoxy)phenyl]benzamide] | > 1 | 0.1 to 1 | 0.1 to 1 | > 1 | < 0.01
O=C(NCC(O)C1CCN(Cc2ccccc2)CC1)C1CCN(c2ccc(OC(F)(F)F)cc2)CC1 (stereo not drawn) [9-8, N-[2-(1-benzylpiperidin-4-yl)-2-hydroxyethyl]-1-[4-(trifluoromethoxy)phenyl]piperidine-4-carboxamide] | > 1 | > 1 | 0.1 to 1 | > 1 | < 0.01
O=C(NCCC1(O)CCN(Cc2ccccc2)CC1)C1CCN(c2ccc(OC(F)(F)F)c(F)c2)CC1 [9-9, N-[2-(1-benzyl-4-hydroxypiperidin-4-yl)ethyl]-1-[3-fluoro-4-(trifluoromethoxy)phenyl]piperidine-4-carboxamide] | > 1 | 0.1 to 1 | 0.1 to 1 | > 1 | < 0.01
C[C@@H]1CN(c2ccc(OC(F)(F)F)c(C#N)c2)CCN1C(=O)NCC[C@H]1CCN(Cc2ccccc2)C1 [9-10, (2R)-N-{2-[(3S)-1-benzylpyrrolidin-3-yl]ethyl}-4-[3-cyano-4-(trifluoromethoxy)phenyl]-2-methylpiperazine-1-carboxamide] | 0.1 to 1 | 0.1 to 1 | 0.1 to 1 | > 1 | < 0.01
O=C(NCCC1CCN(Cc2ccccc2)CC1CO)C1CCN(c2ccc(OC(F)(F)F)cc2)CC1 (stereo not drawn) [9-62, N-{2-[1-benzyl-3-(hydroxymethyl)piperidin-4-yl]ethyl}-1-[4-(trifluoromethoxy)phenyl]piperidine-4-carboxamide] | > 1 | 0.1 to 1 | 0.1 to 1 | > 1 | < 0.01
O=C(NCCC1CCN(Cc2ccccc2)CC1)C1CCN(c2ncc(C(F)(F)F)cc2Cl)CC1 [9-63, N-[2-(1-benzylpiperidin-4-yl)ethyl]-1-[3-chloro-5(trifluoromethyl)pyridin-2-yl]piperidine-4-carboxamide] | 0.01 to 0.1 | 0.01 to 0.1 | < 0.01 | 0.1 to 1 | < 0.01
O=C(NCCC1(CO)CCN(Cc2ccccc2)CC1)C1CCN(c2ccc(OC(F)(F)F)c(F)c2)CC1 [9-64, N-{2-[1-benzyl-4-(hydroxymethyl)piperidin-4-yl]ethyl}-1-[3-fluoro-4-(trifluoromethoxy)phenyl]piperidine-4-carboxamide] | > 1 | 0.1 to 1 | 0.1 to 1 | > 1 | < 0.01
N#Cc1cc(N2CCC(C(=O)NCCC3CCN(Cc4ccccc4)CC3)CC2)ccc1F [9-73, N-[2-(1-benzylpiperidin-4-yl)ethyl]-1-(3-cyano-4-fluorophenyl)piperidine-4-carboxamide] | > 1 | > 1 | 0.1 to 1 | > 1 | < 0.01
